Source: the supplement of paper PMC10307832

Columns and labels:
Assay in all cases: relative viability (nuclei count vs DMSO), 5 days (fraction); higher = more cells survive
NCI-H1975 = tested on: NCI-H1975
How it was run: (§1)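 Nuclei were stained with Hoechst during a one-step fixation (final 0.05% Triton X-100, 1% formaldehyde, 1 ug/ml Hoechst) carried out 5 days after dosing, then counted on 4× images. The cells, lung cancer lines in 1536-well plates, had been dosed by pin tool the day after seeding with one drug alone or a fixed anchor-drug dose plus five library-drug doses (not always all listed) in √10 steps. Relative viability is the nuclei count in treated wells divided by that in vehicle wells, and each value is the median of duplicate plates.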

NCI-H460 = tested on: NCI-H460
How it was run: as §1

NCI-H441 = tested on: NCI-H441
How it was run: as §1

SK-LU-1 = tested on: SK-LU-1
How it was run: as §1

NCI-H1944 = tested on: NCI-H1944
How it was run: as §1

PC-3 [JPC-3] = tested on: PC-3 [JPC-3]
How it was run: as §1

NCI-H1755 = tested on: NCI-H1755
How it was run: as §1

NCI-H2347 = tested on: NCI-H2347
How it was run: as §1

EMC-BAC-2 = tested on: EMC-BAC-2
How it was run: as §1

NCI-H1355 = tested on: NCI-H1355
How it was run: as §1

LCLC-97TM1 = tested on: LCLC-97TM1
How it was run: as §1

NCI-H1793 = tested on: NCI-H1793
How it was run: as §1

NCI-H2126 = tested on: NCI-H2126
How it was run: as §1

NCI-H727 = tested on: NCI-H727
How it was run: as §1

NCI-H647 = tested on: NCI-H647
How it was run: as §1

NCI-H1993 = tested on: NCI-H1993
How it was run: as §1

NCI-H520 = tested on: NCI-H520
How it was run: as §1

NCI-H2009 = tested on: NCI-H2009
How it was run: as §1

SW 1573 = tested on: SW 1573
How it was run: as §1

PC-14 = tested on: PC-14
How it was run: as §1

ABC-1 = tested on: ABC-1
How it was run: as §1

NCI-H1666 = tested on: NCI-H1666
How it was run: as §1

O=C(O)CCCCC(CCSCc1ccccc1)SCc1ccccc1 (centres undefined) [CPI-613] + C[C@]1(O)C[C@@H](c2nc(-c3ccc4ccc(-c5ccccc5)nc4c3)c3c(N)nccn32)C1 [Linsitinib] (partner 1 µM)
relative viability (NCI-H1975; first compound 5 µM): 0.938 | relative viability (NCI-H1975; first compound 15.81 µM): 1.03 | relative viability (NCI-H1975; first compound 50 µM): 1.13 | relative viability (NCI-H1975; first compound 158.11 µM): 0.541 | relative viability (NCI-H1975; first compound 500 µM): 0.0601 | relative viability (NCI-H460; first compound 5 µM): 0.751 | relative viability (NCI-H460; first compound 15.81 µM): 0.737 | relative viability (NCI-H460; first compound 50 µM): 0.78 | relative viability (NCI-H460; first compound 158.11 µM): 0.125 | relative viability (NCI-H460; first compound 500 µM): 0.0075 | relative viability (NCI-H441; first compound 5 µM): 0.521 | relative viability (NCI-H441; first compound 15.81 µM): 0.59 | relative viability (NCI-H441; first compound 50 µM): 0.605 | relative viability (NCI-H441; first compound 158.11 µM): 0.255 | relative viability (NCI-H441; first compound 500 µM): 0.132 | relative viability (SK-LU-1; first compound 5 µM): 1.04 | relative viability (SK-LU-1; first compound 15.81 µM): 0.93 | relative viability (SK-LU-1; first compound 50 µM): 0.893 | relative viability (SK-LU-1; first compound 158.11 µM): 0.177 | relative viability (SK-LU-1; first compound 500 µM): 0.122 | relative viability (NCI-H1944; first compound 5 µM): 1.31 | relative viability (NCI-H1944; first compound 15.81 µM): 1.15 | relative viability (NCI-H1944; first compound 50 µM): 1.14 | relative viability (NCI-H1944; first compound 158.11 µM): 0.968 | relative viability (NCI-H1944; first compound 500 µM): 0.787 | relative viability (PC-3 [JPC-3]; first compound 5 µM): 0.953 | relative viability (PC-3 [JPC-3]; first compound 15.81 µM): 0.854 | relative viability (PC-3 [JPC-3]; first compound 50 µM): 0.883 | relative viability (PC-3 [JPC-3]; first compound 158.11 µM): 0.588 | relative viability (PC-3 [JPC-3]; first compound 500 µM): 0.64 | relative viability (NCI-H1755; first compound 5 µM): 0.991 | relative viability (NCI-H1755; first compound 15.81 µM): 0.977 | relative viability (NCI-H1755; first compound 50 µM): 0.9 | relative viability (NCI-H1755; first compound 158.11 µM): 0.888 | relative viability (NCI-H1755; first compound 500 µM): 0.152 | relative viability (NCI-H2347; first compound 5 µM): 0.983 | relative viability (NCI-H2347; first compound 15.81 µM): 0.857 | relative viability (NCI-H2347; first compound 50 µM): 0.86 | relative viability (NCI-H2347; first compound 158.11 µM): 0.874 | relative viability (NCI-H2347; first compound 500 µM): 0.868 | relative viability (EMC-BAC-2; first compound 5 µM): 0.733 | relative viability (EMC-BAC-2; first compound 15.81 µM): 0.823 | relative viability (EMC-BAC-2; first compound 50 µM): 0.825 | relative viability (EMC-BAC-2; first compound 158.11 µM): 0.701 | relative viability (EMC-BAC-2; first compound 500 µM): 0.272 | relative viability (NCI-H1355; first compound 5 µM): 0.78 | relative viability (NCI-H1355; first compound 15.81 µM): 0.825 | relative viability (NCI-H1355; first compound 50 µM): 0.856 | relative viability (NCI-H1355; first compound 158.11 µM): 0.477 | relative viability (NCI-H1355; first compound 500 µM): 0.103 | relative viability (LCLC-97TM1; first compound 5 µM): 0.186 | relative viability (LCLC-97TM1; first compound 15.81 µM): 0.167 | relative viability (LCLC-97TM1; first compound 50 µM): 0.199 | relative viability (LCLC-97TM1; first compound 158.11 µM): 0.16 | relative viability (LCLC-97TM1; first compound 500 µM): 0.0574 | relative viability (NCI-H1793; first compound 5 µM): 0.822 | relative viability (NCI-H1793; first compound 50 µM): 0.823 | relative viability (NCI-H1793; first compound 158.11 µM): 0.774 | relative viability (NCI-H1793; first compound 500 µM): 0.102 | relative viability (NCI-H2126; first compound 5 µM): 0.721 | relative viability (NCI-H2126; first compound 15.81 µM): 0.751 | relative viability (NCI-H2126; first compound 50 µM): 0.712 | relative viability (NCI-H2126; first compound 158.11 µM): 0.534 | relative viability (NCI-H2126; first compound 500 µM): 0.567 | relative viability (NCI-H727; first compound 5 µM): 0.251 | relative viability (NCI-H727; first compound 15.81 µM): 0.343 | relative viability (NCI-H727; first compound 50 µM): 0.2 | relative viability (NCI-H727; first compound 158.11 µM): 0.216 | relative viability (NCI-H727; first compound 500 µM): 0.0496 | relative viability (NCI-H647; first compound 5 µM): 1.16 | relative viability (NCI-H647; first compound 15.81 µM): 1.13 | relative viability (NCI-H647; first compound 50 µM): 0.951 | relative viability (NCI-H647; first compound 158.11 µM): 0.107 | relative viability (NCI-H647; first compound 500 µM): 0.0169 | relative viability (NCI-H1993; first compound 5 µM): 0.71 | relative viability (NCI-H1993; first compound 15.81 µM): 0.671 | relative viability (NCI-H1993; first compound 50 µM): 0.781 | relative viability (NCI-H1993; first compound 158.11 µM): 0.61 | relative viability (NCI-H1993; first compound 500 µM): 0.432 | relative viability (NCI-H520; first compound 5 µM): 0.842 | relative viability (NCI-H520; first compound 15.81 µM): 1.09 | relative viability (NCI-H520; first compound 50 µM): 1.03 | relative viability (NCI-H520; first compound 158.11 µM): 0.412 | relative viability (NCI-H520; first compound 500 µM): 0.12 | relative viability (NCI-H2009; first compound 5 µM): 1.17 | relative viability (NCI-H2009; first compound 15.81 µM): 1.18 | relative viability (NCI-H2009; first compound 50 µM): 1.18 | relative viability (NCI-H2009; first compound 158.11 µM): 0.559 | relative viability (NCI-H2009; first compound 500 µM): 0.019 | relative viability (SW 1573; first compound 5 µM): 0.878 | relative viability (SW 1573; first compound 15.81 µM): 0.751 | relative viability (SW 1573; first compound 50 µM): 0.816 | relative viability (SW 1573; first compound 158.11 µM): 0.625 | relative viability (SW 1573; first compound 500 µM): 0.576 | relative viability (PC-14; first compound 5 µM): 0.941 | relative viability (PC-14; first compound 15.81 µM): 0.874 | relative viability (PC-14; first compound 50 µM): 0.928 | relative viability (PC-14; first compound 158.11 µM): 0.857 | relative viability (PC-14; first compound 500 µM): 1.02 | relative viability (ABC-1; first compound 5 µM): 0.744 | relative viability (ABC-1; first compound 15.81 µM): 1.02 | relative viability (ABC-1; first compound 50 µM): 0.815 | relative viability (ABC-1; first compound 158.11 µM): 0.254 | relative viability (ABC-1; first compound 500 µM): 0.169 | relative viability (NCI-H1666; first compound 5 µM): 0.783 | relative viability (NCI-H1666; first compound 15.81 µM): 0.907 | relative viability (NCI-H1666; first compound 50 µM): 0.789 | relative viability (NCI-H1666; first compound 158.11 µM): 0.172 | relative viability (NCI-H1666; first compound 500 µM): 0.167
